According to US20090169521A1, “Vascularized cardiac tissue and methods of producing and using same” (Technion Research & Development Foundation Ltd., priority 2007, published 2009):
“Also recorded” adds a separate entry of the source.

Columns and labels:
[1] = test system: spontaneously contracting engineered cardiac tissue (gap junctions between hESC-CM); assay: Laser confocal Ca2+ imaging (Fluo-4) of impulse propagation; type: cell-based, human; details: 1 mM, calcium imaging
Protocol: Laser scanning confocal Ca-imaging: Scaffolds were loaded with fluo-4 Ca AM (Molecular Probes) indicator to visualize free Ca^+2 levels. To this purpose, 5 mM stock solution of fluo-4 AM in DMSO was, diluted in standard hESC medium, at dilution of 1:1000 giving a final concentration of 5 μM. The non-ionic detergent Pluronic F-127 (Molecular Probes) was used to assist dispersion of the nonpolar fluo-4 AM ester in the aqueous media. Scaffolds were incubated for 45 minutes at 37° C. Following incubation the scaffolds were washed (×3) with indicator-free control tyrode solution removing any dye non-specifically associated with the cell surface. Afterwards the scaffolds were further incubated for 15 minutes allowing complete de-esterification of intracellular AM esters (according to manufacture's instructions). […]
Since the ultrastructural characterization clearly indicated the presence of gap junctions between adjacent hESC-CM (FIG. 7D), the present inventors sought to determine whether these formed gap junctions mediate impulse conduction between the hESC-CM and therefore allow synchronous contraction. […] The beating frequency of the spontaneously contracting cardiac tissue was evaluated following application of different pharmacological agents. […]

[2] = test system: spontaneously contracting engineered cardiac tissue; assay: Beating frequency of engineered cardiac tissue after chronotropic agents; type: cell-based, human; details: 1 μM, n=4; before application 1.6±0.3 Hz (isoproterenol), 1.7±0.2 Hz (carbamylcholine)
Protocol: Since the ultrastructural characterization clearly indicated the presence of gap junctions between adjacent hESC-CM (FIG. 7D), the present inventors sought to determine whether these formed gap junctions mediate impulse conduction between the hESC-CM and therefore allow synchronous contraction. The gap junction uncoupler, 1-heptanol (1 mM), was applied to the spontaneously contracting engineered cardiac tissue. […] The beating frequency of the spontaneously contracting cardiac tissue was evaluated following application of different pharmacological agents. Appropriate positive and negative chronotropic responses were observed following application of the β-agonist, isoproterenol (1 μM) and the muscarinic agonist—carbamylcholine (1 μM). Thus, isoproterenol increased the beating frequency of the engineered cardiac issue from 1.6±0.3 Hz to 2.1±0.3 Hz (p<0.05, n=4), while carbamylcholine decreased the beating frequency from 1.7±0.2 Hz to 1.4±0.1 Hz (p=0.055, n=4).

Row | SMILES | impulse propagation [1] | beating frequency after application of the agent [2] [Hz]
1 | CCCCCCCO [1-heptanol] | complete inhibition; also recorded: completely inhibited | 
2 | CC(C)NCC(O)c1ccc(O)c(O)c1 (stereo not drawn) [isoproterenol] |  | 2.1±0.3
3 | C[N+](C)(C)CCOC(N)=O.[Cl-] [carbamylcholine] |  | 1.4±0.1
